Ki and inhibition in vivo data for 12 compounds are collected here from patent US6239131A, “1,5 Benzodiazepine derivatives” (Zeria Pharmaceutical Co., Ltd., priority 1996, dated 2001).

Test [1] deals with T1, CCK-B receptors (Cavia porcellus, UniProt H0VZC5).
T1 construct: Cerebral cortices were removed from Hartley-strain guinea pigs, the cerebral cortices were homogenized; from tissue; host or cells: cerebral cortex of Hartley-strain guinea pigs, crude membrane pellet
T1 sequence (H0VZC5 1-426): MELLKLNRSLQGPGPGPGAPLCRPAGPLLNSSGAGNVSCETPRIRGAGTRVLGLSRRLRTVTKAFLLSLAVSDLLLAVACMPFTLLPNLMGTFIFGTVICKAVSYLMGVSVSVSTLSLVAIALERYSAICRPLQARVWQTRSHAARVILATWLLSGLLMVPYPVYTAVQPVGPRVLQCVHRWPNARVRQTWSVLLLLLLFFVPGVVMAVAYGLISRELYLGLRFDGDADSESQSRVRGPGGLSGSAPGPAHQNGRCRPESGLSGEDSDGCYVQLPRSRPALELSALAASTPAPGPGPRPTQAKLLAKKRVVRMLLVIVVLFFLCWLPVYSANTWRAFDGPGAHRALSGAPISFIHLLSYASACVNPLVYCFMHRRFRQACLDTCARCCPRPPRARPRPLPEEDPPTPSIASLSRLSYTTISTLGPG
Briefly: Measurement of Binding Affinity for CCK-B Receptors. More on the design: species or system Hartley-strain guinea pig.

The target of test [2] is T2, CCK-A receptors (Cavia porcellus, UniProt Q63931).
T2 construct: Pancreases were removed from Hartley-strain guinea pigs, the pancreases were homogenized; from tissue; host or cells: pancreas of Hartley-strain guinea pigs, crude membrane pellet
T2 sequence (Q63931 1-430): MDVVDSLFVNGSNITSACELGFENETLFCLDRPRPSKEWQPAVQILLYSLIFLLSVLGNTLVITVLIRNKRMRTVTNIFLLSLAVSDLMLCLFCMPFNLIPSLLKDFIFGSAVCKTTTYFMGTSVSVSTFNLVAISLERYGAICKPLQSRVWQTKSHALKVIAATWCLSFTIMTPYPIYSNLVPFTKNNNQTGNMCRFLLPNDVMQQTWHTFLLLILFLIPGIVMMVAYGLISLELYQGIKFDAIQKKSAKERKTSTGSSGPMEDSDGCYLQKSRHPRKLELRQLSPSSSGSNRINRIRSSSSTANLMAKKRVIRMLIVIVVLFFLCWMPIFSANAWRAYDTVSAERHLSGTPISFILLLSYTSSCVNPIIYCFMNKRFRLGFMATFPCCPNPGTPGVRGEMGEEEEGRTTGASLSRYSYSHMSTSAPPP
Briefly: Measurement of Binding Affinity for CCK-A Receptors. More on the design: species or system Hartley-strain guinea pig. Particulars: inhibition of specific [3H]L-364,718 (0.2 nM) binding; guinea pig pancreas; 25° C., 2 hours; pH 6.5. As for the experimental part: Pancreases were removed from Hartley-strain guinea pigs, the pancreases were homogenized in 40 volumes of 10 mM PIPES buffer (pH 6.5, which hereinafter be abbreviated as "solvent") containing 1 mM EGTA, 30 mM MgCl2, 0.02% bacitracin, 0.02% soybean trypsin inhibitor and 0.3 M sucrose. The homogenate was filtrated through gauze and centrifuged at 50000×g for 10 minutes. Solvent was added to the pellet and recentrifuged as above. The final pellet thus obtained was homogenized in 40 volumes of solvent and used as the receptor preparation.
Binding assay was measured as follows. Fifty μl of [^3 H]L-364, 718 (at the final concentration of 0.2 nM) and 900 μl of the receptor preparation (50 μg protein/tube) were added to 50 μl of solvent, or L-364, 718 (1 μM) or a test compound. This mixture was incubated at 25° C. for 2 hours. After the reaction, the mixture was filtrated through Whatman GF/B filter presoaked in 0.1% BSA (bovine serum albumin). The filter was washed with 3 ml of ice-cold 10 mM PIPES buffer (pH 6.5) three times, immediately after the filtration. The filter was soaked in the ACS-II scintillation cocktail for one day and radioactivity was measured using a liquid scintillation counter. Non-specific binding was defined as the radioactivity in the presence of 1 μM L-364, 718. Specific binding was defined as the difference between total binding (used solvent without L-364, 718) and non-specific binding. lnhibitor dissociation constant (Ki) of each test compound was determined from the inhibition of specific [^3 H]L-364, 718 binding.

In test [3] the test system is pentagastrin-stimulated acid secretion. The experiment in a line: Measurement of Inhibition of Pentagastrin-stimulated Acid Secretion. In kind it is in vivo, male Sprague-Dawley (SD)-strain rats. The conditions noted are these: intraduodenal, rat, acid output from 1 to 4 hours after administration, pentagastrin 15 μg/kg/hr. The procedure: Male Sprague-Dawley (SD)-strain rats were used. Each rat was operated to ligate the pylorus, and equip with a duodenal catheter and gastric fistula under a ether anesthesia. After the operation, each rat was placed in a Bollman-type cage and continuously infused pentagastrin (15 μg/kg/hr) through the tail vein. Test compounds were suspended in 0.5% aqueous sodium carboxymethylcellulose (which hereinafter be abbreviated as "vehicle"). Vehicle or test compound was administered through the intraduodenal catheter 1 hour after the beginning of pentagastrin infusion. Acidity of the collected gastric juice was measured by an automatic titillation device. Acid output was determined by multiplying the volume by the acidity of gastric juice. […] [formula]

Where [4] appears, read: inhibition of specific [3H]CCK-8 (1.0 nM) binding, guinea pig cerebral cortex, 25° C., 2 hours, pH 6.5, read-out: Ki (CCK-B receptors).

Molecules are shown by their SMILES. Where two headings read alike, the source gives them in different places.

As a reminder, the Ki is a measure of affinity in units of concentration, obtained from inhibition or displacement. A word on the inhibition in vivo: it is the share of the control response that was lost under treatment. In the case of `CC(C)(C)C(=O)CN1C(=O)C(NC(=O)Nc2cccc(C(=O)O)c2)CN(c2ccccc2)c2ccccc21` (racemic) [Example 70 (racemate), 3-[3-(1-tert-butylcarbonylmethyl-2-oxo-5-phenyl-1,3,4,5-tetrahydro-2H-1,5-benzodiazepin-3-yl)ureido]benzoic acid], the inhibition constant (Ki) in test [1] (setting [4]) was found to be 0.77 nM; in test [2], 303 nM. Further, testing at 3 mg/kg in test [3] gave an inhibition in vivo of 76.5%.

`CC(C)(C)C(=O)CN1C(=O)C(NC(=O)Nc2cccc(C(=O)O)c2)CN(c2ccccc2)c2ccccc21` (single isomer, unassigned; (-)) [Example 70 (-form), (-)-3-[3-(1-tert-butylcarbonylmethyl-2-oxo-5-phenyl-1,3,4,5-tetrahydro-2H-1,5-benzodiazepin-3-yl)ureido]benzoic acid]: the Ki in test [1] (setting [4]) was found to be 0.36 nM; in test [2], 255 nM. Besides, the inhibition in vivo at 1 mg/kg in test [3] is 84.8%.

For the compound `CC(C)(C)C(=O)CN1C(=O)C(NC(=O)Nc2cccc(SCC(=O)O)c2)CN(c2ccccc2)c2ccccc21` (single isomer, unassigned; (-)) [Example 88 (-form)], the inhibition constant (Ki) in test [1] (setting [4]) turned out to be 0.11 nM; in test [2], 16.7 nM. The compound further registered an inhibition in vivo at 1 mg/kg in test [3] of 68.4%.

For the compound `Cc1ccc2c(c1)N(CC(=O)C(C)(C)C)C(=O)C(NC(=O)Nc1cccc(C(=O)O)c1)CN2c1ccccc1` (single isomer, unassigned; (-)) [Example 97, (-)-3-[3-(1-tert-butylcarbonylmethyl-2-oxo-5-phenyl-8-methyl-1,3,4,5-tetrahydro-2H-1,5-benzodiazepin-3-yl)ureido]benzoic acid], the values for the Ki in test [1] (setting [4]) and in test [2] were 1.59 nM and 367 nM, respectively.

As for `CC(C)(C)C(=O)CN1C(=O)C(NC(=O)Nc2cccc(SCC(=O)O)c2)CN(c2ccccc2)c2ccccc21` (stereo not drawn) [Example 33, 3-[3-(1-tert-butylcarbonylmethyl-2-oxo-5-phenyl-1,3,4,5-tetrahydro-2H-1,5-benzodiazepin-3-yl)ureido]phenylthioacetic acid], the results for the Ki in test [1] (setting [4]) and in test [2] were 0.14 nM and 244 nM, respectively. This compound also returned an inhibition in vivo at 3 mg/kg in test [3] of 77.2%.

On to `Cc1ccc2c(c1)N(CC(=O)c1ccccc1C)C(=O)C(NC(=O)Nc1cccc(C(=O)O)c1)CN2C(=O)C1CCCC1` (stereo not drawn) [Example 87, 3-[3-[1-(2-toluoylmethyl)-2-oxo-5-cyclopentylcarbonyl-8-methyl-1,3,4,5-tetrahydro-2H-1,5-benzodiazepin-3-yl]ureido]benzoic acid], for which the results for the inhibition constant (Ki) in test [1] (setting [4]) and in test [2] were 1.39 nM and 120 nM, respectively. Besides, the inhibition in vivo at 30 mg/kg in test [3] turned out to be 80.1%.

As to `CC(C)(C)C(=O)CN1C(=O)C(NC(=O)Nc2cccc(C(=O)O)c2)CN(c2ccccc2F)c2ccccc21` (stereo not drawn) [Example 101, 3-[3-[1-tert-butylcarbonylmethyl-2-oxo-5-(2-fluorophenyl)-1,3,4,5-tetrahydro-2H-1,5-benzodiazepin-3-yl]ureido]benzoic acid], the Ki in test [1] (setting [4]) is 1.13 nM; in test [2], 472 nM. Further, the inhibition in vivo at 3 mg/kg in test [3] turned out to be 78%.

For `Cc1ccc2c(c1)N(CC(=O)c1ccccc1C)C(=O)C(NC(=O)Nc1cccc(C(=O)O)c1)CN2C(=O)c1cccs1` (stereo not drawn) [Example 104, 3-[3-[1-(2-toluoylmethyl)-2-oxo-5-(2-thenoyl)-8-methyl-1,3,4,5-tetrahydro-2H-1,5-benzodiazepin-3-yl]ureido]benzoic acid], the inhibitory constant (Ki) in test [1] (setting [4]) was 0.59 nM; in test [2] it was 130 nM. The compound also displayed an inhibition in vivo at 1 mg/kg in test [3] of 58%.

Take `Cc1ccc2c(c1)N(CC(=O)c1ccccc1C)C(=O)C(NC(=O)Nc1cccc(C(=O)O)c1)CN2C(=O)CC(C)(C)C` (stereo not drawn) [Example 109, 3-[3-[1-(2-toluoylmethyl)-2-oxo-5-(3,3-dimethylbutanoyl)-8-methyl-1,3,4,5-tetrahydro-2H-1,5-benzodiazepin-3-yl]ureido]benzoic acid]: the Ki amounted to 1.81 nM in test [1] (setting [4]) and 346 nM in test [2]. Also, in test [3], at 1 mg/kg the inhibition in vivo was 54%.

As to `CC(=O)N1CC(NC(=O)Nc2cccc(C(=O)O)c2)C(=O)N(CC(=O)c2ccccc2C)c2cc(C)ccc21` (stereo not drawn) [Example 111, 3-[3-[1-(2-toluoylmethyl)-2-oxo-5-acetyl-8-methyl-1,3,4,5-tetrahydro-2H-1,5-benzodiazepin-3-yl]ureido]benzoic acid], the Ki in test [2] turned out to be 6.34 nM.

For `Cc1ccc2c(c1)N(CC(=O)c1ccccc1C)C(=O)C(NC(=O)Nc1ccc(C)c(C(=O)O)c1)CN2C(=O)CC(C)(C)C` (stereo not drawn) [Example 120, 5-[3-[1-(2-toluoylmethyl)-2-oxo-5-(3,3-dimethylbutanoyl)-8-methyl-1,3,4,5-tetrahydro-2H-1,5-benzodiazepin-3-yl]ureido]-2-methylbenzoic acid], the Ki in test [1] (setting [4]) was found to be 0.75 nM; in test [2], 506 nM. In test [3], this compound came in with an inhibition in vivo at 30 mg/kg of 88.3%.

As to `Cc1cccc(NC(=O)N[C@@H]2N=C(c3ccccc3)c3ccccc3N(C)C2=O)c1` [L-365, 260, reference compound], the Ki worked out at 24.6 nM in test [1] and 0.64 nM in test [2]. Besides, the inhibition in vivo at 30 mg/kg in test [3] was 46.5%.
